Assay results: PubChem BioAssay (NCI)
Several values for one entry are separate records, joined by “and”; a condition that tells them apart may be missing. Equal values may be shown once.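 Where inhibition never reached the appropriate level, the endpoint shown equals the highest concentration tested. Otherwise, values were interpolated linearly from a five-concentration, 48-hour dose response in 96-well plates. Here, GI50 denotes the concentration required for 50% inhibition of growth. TGI is the concentration that stops growth completely.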

Key:
Assay in all cases: NCI tumour cell line growth inhibition, 48 h
786-0 renal = test system: 786-0 renal
HS 578T breast = test system: HS 578T breast
T-47D breast = test system: T-47D breast
NCI-H226 lung = test system: NCI-H226 lung
PC-3 prostate = test system: PC-3 prostate
SR leukemia = test system: SR leukemia
DU-145 prostate = test system: DU-145 prostate
TK-10 renal = test system: TK-10 renal
ACHN renal = test system: ACHN renal
A498 renal = test system: A498 renal
MDA-MB-435 = test system: MDA-MB-435
P388/ADR leukemia = test system: P388/ADR leukemia
M14 melanoma = test system: M14 melanoma
BT-549 breast = test system: BT-549 breast
MDA-N = test system: MDA-N
MDA-MB-231 breast = test system: MDA-MB-231 breast
SN12C renal = test system: SN12C renal
SK-MEL-5 melanoma = test system: SK-MEL-5 melanoma
DLD-1 colon = test system: DLD-1 colon
OVCAR-8 ovarian = test system: OVCAR-8 ovarian
HOP-18 NSCLC = test system: HOP-18 NSCLC
EKVX NSCLC = test system: EKVX NSCLC
UO-31 renal = test system: UO-31 renal
SNB-78 CNS = test system: SNB-78 CNS
M19-MEL melanoma = test system: M19-MEL melanoma
CAKI-1 renal = test system: CAKI-1 renal
HCT-15 colon = test system: HCT-15 colon
HCT-116 colon = test system: HCT-116 colon
NCI-H460 lung = test system: NCI-H460 lung
NCI-H23 lung = test system: NCI-H23 lung
KM20L2 colon = test system: KM20L2 colon
DMS 273 small cell lung = test system: DMS 273 small cell lung
MALME-3M melanoma = test system: MALME-3M melanoma
UACC-62 melanoma = test system: UACC-62 melanoma
SNB-75 CNS = test system: SNB-75 CNS
SW-620 colon = test system: SW-620 colon
LXFL 529 NSCLC = test system: LXFL 529 NSCLC
MOLT-4 leukemia = test system: MOLT-4 leukemia
U251 CNS = test system: U251 CNS
HL-60(TB) leukemia = test system: HL-60(TB) leukemia
SF-539 CNS = test system: SF-539 CNS
XF 498 CNS = test system: XF 498 CNS
SK-OV-3 ovarian = test system: SK-OV-3 ovarian
RPMI-8226 leukemia = test system: RPMI-8226 leukemia
SF-268 CNS = test system: SF-268 CNS
UACC-257 melanoma = test system: UACC-257 melanoma
OVCAR-5 ovarian = test system: OVCAR-5 ovarian
CCRF-CEM leukemia = test system: CCRF-CEM leukemia
HCC-2998 colon = test system: HCC-2998 colon
HT29 colon = test system: HT29 colon
OVCAR-3 ovarian = test system: OVCAR-3 ovarian
SK-MEL-28 melanoma = test system: SK-MEL-28 melanoma
K-562 leukemia = test system: K-562 leukemia
A549 NSCLC = test system: A549 NSCLC
SNB-19 CNS = test system: SNB-19 CNS
COLO 205 colon = test system: COLO 205 colon
KM12 colon = test system: KM12 colon
NCI-H522 lung = test system: NCI-H522 lung
HOP-92 NSCLC = test system: HOP-92 NSCLC
OVCAR-4 ovarian = test system: OVCAR-4 ovarian
SF-295 CNS = test system: SF-295 CNS
RXF-631 renal = test system: RXF-631 renal
IGROV1 ovarian = test system: IGROV1 ovarian
HOP-62 NSCLC = test system: HOP-62 NSCLC
SK-MEL-2 melanoma = test system: SK-MEL-2 melanoma

COc1cccc2c1C(=O)c1c(O)c3c(c(O)c1C2=O)C[C@@](O)(C(=O)CO)C[C@@H]3OC1CC(N2CCOCC2)C(O)C(C)O1 (some centres undefined)
GI50 (786-0 renal): < 0.0131 µM
TGI (786-0 renal): 0.611 µM
TGI (HS 578T breast): 0.228 µM
TGI (T-47D breast): 1.06 µM
TGI (NCI-H226 lung): 0.00866 µM and 0.0283 µM and 0.00455 µM
TGI (PC-3 prostate): 0.241 µM
GI50 (SR leukemia): 0.00553 µM
TGI (DU-145 prostate): 3.37 µM
TGI (TK-10 renal): 2.07 µM
GI50 (ACHN renal): 0.00841 µM
TGI (ACHN renal): 0.0736 µM
TGI (A498 renal): 0.0232 µM and 0.0486 µM and 0.00651 µM
TGI (MDA-MB-435): 0.195 µM
GI50 (P388/ADR leukemia): 0.0025 µM
TGI (M14 melanoma): 0.149 µM
TGI (BT-549 breast): 0.392 µM
TGI (MDA-N): 0.175 µM
TGI (MDA-MB-231 breast): 0.433 µM

Cc1cccc(-c2nc(=S)[nH][nH]2)c1
TGI (SN12C renal): > 100 µM
TGI (786-0 renal): > 100 µM
TGI (SK-MEL-5 melanoma): > 100 µM
TGI (DLD-1 colon): > 100 µM
TGI (OVCAR-8 ovarian): > 100 µM
TGI (HOP-18 NSCLC): > 100 µM
TGI (EKVX NSCLC): > 100 µM
TGI (UO-31 renal): > 100 µM
TGI (SNB-78 CNS): > 100 µM
TGI (M19-MEL melanoma): > 100 µM
TGI (CAKI-1 renal): > 100 µM
TGI (HCT-15 colon): > 100 µM
TGI (HCT-116 colon): > 100 µM
TGI (NCI-H226 lung): > 100 µM
TGI (NCI-H460 lung): > 100 µM
TGI (NCI-H23 lung): > 100 µM
TGI (KM20L2 colon): > 100 µM
TGI (DMS 273 small cell lung): > 100 µM
TGI (MALME-3M melanoma): > 100 µM
TGI (UACC-62 melanoma): > 100 µM
TGI (SNB-75 CNS): > 100 µM
TGI (SW-620 colon): > 100 µM
TGI (LXFL 529 NSCLC): > 100 µM
TGI (MOLT-4 leukemia): > 100 µM
TGI (U251 CNS): > 100 µM
TGI (HL-60(TB) leukemia): > 100 µM
TGI (SF-539 CNS): > 100 µM
TGI (XF 498 CNS): > 100 µM
TGI (SR leukemia): > 100 µM
TGI (SK-OV-3 ovarian): > 100 µM
TGI (RPMI-8226 leukemia): > 100 µM
TGI (SF-268 CNS): > 100 µM
TGI (UACC-257 melanoma): > 100 µM
TGI (TK-10 renal): > 100 µM
TGI (ACHN renal): > 100 µM
TGI (OVCAR-5 ovarian): > 100 µM
TGI (CCRF-CEM leukemia): > 100 µM
TGI (A498 renal): > 100 µM
TGI (HCC-2998 colon): > 100 µM
TGI (HT29 colon): > 100 µM
TGI (OVCAR-3 ovarian): > 100 µM
TGI (SK-MEL-28 melanoma): > 100 µM
TGI (K-562 leukemia): > 100 µM
TGI (A549 NSCLC): > 100 µM
TGI (SNB-19 CNS): > 100 µM
TGI (COLO 205 colon): > 100 µM
TGI (KM12 colon): > 100 µM
TGI (NCI-H522 lung): > 100 µM
TGI (HOP-92 NSCLC): > 100 µM
TGI (OVCAR-4 ovarian): > 100 µM
TGI (M14 melanoma): > 100 µM
TGI (SF-295 CNS): > 100 µM
TGI (RXF-631 renal): > 100 µM
TGI (IGROV1 ovarian): > 100 µM
TGI (HOP-62 NSCLC): > 100 µM
TGI (SK-MEL-2 melanoma): > 100 µM
